According to US6596257B2, “Detection and visualization of neoplastic tissues and other tissues” (Prolume, Ltd., priority 1996, dated 2003):

Key:
[1] = format: physicochemical
Source text: Coelenterazine is not terribly soluble in non-irritant vehicles. Coelenterazine is soluble to at least to a concentration of 200 micrograms/mL in a solution of 2% (w/v) PEG 400 containing about 0.8% (w/v) NaCl. Although this solution is slightly hypertonic, it is not an irritant for vehicle purposes.

[2] = tested on: mice; assay: Repeated administration toxicology: gross signs of toxicity in behavior; format: in vivo, mouse; details: 1 mg/kg i.p., daily administration for three days, n=6
Source text: […] Mice are examined over the course of the study for any gross signs of toxicity as evidenced in their behavior. At the end of the one-week period, blood which is collected by cardiac puncture immediately prior to sacrifice. Animals are sacrificed and ten different tissue samples are removed post mortem from each animal. Isolated tissues are fixed, stained, blocked and sectioned. The pathology of the tissue samples will be analyzed and the toxicology data are compiled.

solubility (soluble to at least a concentration of) [1]: ≥ 200 micrograms/mL
Substance: coelenterazine
gross behavior changes [2]: no gross behavior changes
